Measurements from patent US9447136B2, “Semisynthetic derivatives of Nystatin A1” (BLIRT S.A., priority 2012, dated 2016).
Where two headings read alike, the source gives them in different places.

Key:
[1] = tested on: Candida lusitaniae DSM 70102; assay: Antifungal activity in vitro, serial dilution in RPMI 1640; assay type: cell-based; settings: Table 2A; RPMI 1640, pH 7.0
Procedure: (§1) For the determination of antifungal activity in vitro we used method of serial dilution in buffered medium RPMI 1640, pH 7.0, in a 96-wells microplates, according to the standard procedure (National Committee for Clinical Laboratory Standards. Reference method for broth dilution antifungal susceptibility testing of yeast, approved standard, 2nd ed. M27-A2 vol. 22 Wayne, Pa., 2002). The optical density of cells suspension was measured using a microplates reader (Victor^3, Perkin-Elmer) at the wavelength λ=531 nm (A531). On the basis of obtained results the diagrams of relation between A531 values and concentration of examined compound were made. From these graphs, the IC50 values were read, which were the interpolated concentrations of a tested compound, at which the A531 value was exactly 50% of the A531 value for the control sample. Moreover, MIC values, that are the lowest concentration of tested compound at which the A531 value were at most 20% of the A531 value measured for the control sample.

[2] = tested on: Candida tropicalis KKP 334; assay: as above; assay type: cell-based; settings: Table 2A; RPMI 1640, pH 7.0
Procedure: as §1

[3] = tested on: Candida krusei DSM 6128; assay: as above; assay type: cell-based; settings: Table 2A; RPMI 1640, pH 7.0
Procedure: as §1

[4] = tested on: Candida albicans ATCC 10231; assay: as above; assay type: cell-based; settings: Table 2A, RPMI 1640, pH 7.0; for Antifungal activity Candida albicans ATCC 10231 IC50: A531 50% of control; for Antifungal activity Candida albicans ATCC 10231 MIC: A531 at most 20% of control
Procedure: as §1

[5] = tested on: Candida glabrata DSM 11226; assay: as above; assay type: cell-based; settings: Table 2A; RPMI 1640, pH 7.0
Procedure: as §1

[6] = tested on: Saccharomyces cerevisiae ATCC 9763; assay: as above; assay type: cell-based; settings: Table 2A; RPMI 1640, pH 7.0; A531 at most 20% of control
Procedure: as §1

[7] = tested on: Human erythrocytes; assay: Hemotoxicity (hemolytic activity); settings: for Hemotoxicity BEH50: 37° C., 30 minutes, concentration causing 50% hemolysis, maximum concentration 300 μg/ml
Procedure: The hemotoxicity determination were carried out by the serial dilutions method, according to the procedure described earlier (Ślisz, M., et al., E., J Antibiot 57: 669-678 (2004)). Human erythrocytes were suspensed in the solution of saline to obtain a cell density of suspension 2×10^7/ml. Suitable amounts of diluted solutions of compounds were added to the cell suspension in tubes and were incubated at 37° C. for 30 minutes and then centrifuged (1700×g, 10 min, 4° C.). The concentration of hemoglobin in supernatant after centrifugation of erythrocytes suspension were determined by measuring the absorbance at wavelength λ=540 nm (A540). The maximum level of hemolysis was obtained after incubation of cells suspension in the presence of 0.1% Tritone X-100 (control sample). […] From these graphs, the EH50 values were read which are the interpolated concentrations of compound, for which the A540 value is exactly 50% of the A540 value measured for the control sample.

[8] = tested on: HepG2; assay: Cytotoxic activity against mammalian cells in tissue culture (MTT); assay type: cell-based, human
Procedure: (§2) For examinations were used selected cell lines: CCRF-CEM—human acute lymphoblastic leukemia; HepG2—human malignant hepatoma; LLC-PK1—epithelial cell of pig kidney; All lines were from ATCC collection.
(§3) The study are conducted using described below methods of culturing and determination of cytotoxic activity.
(§4) CCRF-CEM cells were cultured in medium RPMI 1640+10% fetal bovine serum (FBS), LLC-PK1 cells in medium Medium 199+3% FBS, HepG2 cells in medium MEM+10% FBS. All media contained 100 μg/ml of penicillin G and streptomycin. 24-wells microplates containing appropriate medium were inoculated with the cells in amount of 1.2×10^4 cells/well and allowed to stand overnight. Next, tested compounds as solution in dimethylsulfoxide (DMSO) were added in volume of 10 μl (serial 2× dilutions). To control well 10 μl of DMSO was added. Microplates with cell suspensions were incubated for 120 h at temperature 37° C. at atmosphere of 95%/5% CO2. After incubation, to all wells 200 μl of solution of 3-(4,5-dimethylthiazole-2-yl)-2,5-diphenylotetrazole bromide (MTT) in PBS (4 mg/ml) was added and plates were further incubated for 4 h at 37° C. Next, to dissolve crystals of formazane 1 ml of DMSO was added and absorption of solutions was measured at the wavelength λ=540 nm (A540), using a microplates reader (Victor^3, Perkin-Wallac). […] From these graphs IC50 values were read, that is concentration of tested compound in the presence at which A540 value is half of A540 value measured in the control sample.

[9] = tested on: CCRF-CEM; assay: as above; assay type: cell-based, human
Procedure: as §2, §3, §4

[10] = tested on: LLC-PK1; assay: as above; assay type: cell-based, pig
Procedure: as §2, §3, §4

[11] = human erythrocytes, concentration causing 10% of hemolysis

Row | Compound | Antifungal activity Candida lusitaniae DSM 70102 MIC [1] | Antifungal activity Candida tropicalis KKP 334 MIC [2] | Antifungal activity Candida krusei DSM 6128 MIC [3] | Antifungal activity Candida albicans ATCC 10231 IC50 [4] | Antifungal activity Candida albicans ATCC 10231 MIC [4] | Antifungal activity Candida glabrata DSM 11226 MIC [5] | Antifungal activity Saccharomyces cerevisiae ATCC 9763 MIC [6] | EH10 [7, 11] | Cytotoxicity IC50 HepG2 ([8]; HepG2, 120 h, MTT) | Cytotoxicity IC50 CCRF-CEM ([9]; CCRF-CEM, 120 h, MTT) | Cytotoxicity IC50 LLC-PK1 ([10]; LLC-PK1, 120 h, MTT) | Hemotoxicity BEH50 ([7]; human erythrocytes) | EH10 [7] | % of hemolysis at the concentration 60 μg ml^−1 ([7]; human erythrocytes, 60 μg ml^−1) | Cytotoxicity IC50 HepG2 [8] | Cytotoxicity IC50 CCRF-CEM [9] | Cytotoxicity IC50 LLC-PK1 [10] | % of hemolysis at the concentration 60 μg ml^−1 [7]
1 | CC1OC(O[C@H]2/C=C/C=C/C=C/C=C/CC/C=C/C=C/[C@H](C)[C@@H](O)[C@@H](C)[C@H](C)OC(=O)C[C@H](O)C[C@H](O)C[C@H](O)CC[C@@H](O)[C@H](O)CC3(O)C[C@H](O)[C@@H](C(=O)O)[C@H](C2)O3)C(O)C(NC2CC(=O)N(CCN3CCCCC3)C2=O)C1O (stereo partly shown) [Compound N8, N—[N′-2-(piperidin-1-yl)ethylsuccinimidyl]nystatin A1] | 2 µg/mL | 2 µg/mL | 4 µg/mL | 1.54 µg/mL | 2 µg/mL | 4 µg/mL | 2 µg/mL | 150.73 µg/mL |  |  |  |  |  |  |  |  |  | 
2 | CCN(CC)CCNC(=S)NC1C(O)C(C)OC(O[C@H]2/C=C/C=C/C=C/C=C/CC/C=C/C=C/[C@H](C)[C@@H](O)[C@@H](C)[C@H](C)OC(=O)C[C@H](O)C[C@H](O)C[C@H](O)CC[C@@H](O)[C@H](O)CC3(O)C[C@H](O)[C@@H](C(=O)O)[C@H](C2)O3)C1O (stereo partly shown) [Compound N14, N-{3-[2-(N,N-diethylamino)ethyl]thioureidyl}nystatin A1] | 4 µg/mL | 8 µg/mL | 16 µg/mL | 3.21 µg/mL | 8 µg/mL | 16 µg/mL | 4 µg/mL |  | >100 µg/mL | >100 µg/mL | >100 µg/mL |  |  |  |  |  |  | 
3 | CC1OC(O[C@H]2/C=C/C=C/C=C/C=C/CC/C=C/C=C/[C@H](C)[C@@H](O)[C@@H](C)[C@H](C)OC(=O)C[C@H](O)C[C@H](O)C[C@H](O)CC[C@@H](O)[C@H](O)CC3(O)C[C@H](O)[C@@H](C(=O)O)[C@H](C2)O3)C(O)C(NC(=S)NCCCN(C)C)C1O (stereo partly shown) [Compound N17, N-{3-[3-(N,N-dimethylamino)propyl]thioureidyl}nystatin A1] | 4 µg/mL | 4 µg/mL | 8 µg/mL | 2.92 µg/mL | 4 µg/mL | 8 µg/mL | 4 µg/mL | 156.33 µg/mL | >100 µg/mL | >100 µg/mL | >100 µg/mL |  |  |  |  |  |  | 
4 | CC1OC(O[C@H]2/C=C/C=C/C=C/C=C/CC/C=C/C=C/[C@H](C)[C@@H](O)[C@@H](C)[C@H](C)OC(=O)C[C@H](O)C[C@H](O)C[C@H](O)CC[C@@H](O)[C@H](O)CC3(O)C[C@H](O)[C@@H](C(=O)O)[C@H](C2)O3)C(O)C(NCc2ccccc2)C1O (stereo partly shown) [Compound N21, N-benzylnystatin A1] |  | 4 µg/mL | 4 µg/mL | 2.32 µg/mL | 4 µg/mL | 4 µg/mL | 2 µg/mL | 91.60 µg/mL | 68.3 ± 8.06 µg/mL | 91.9 ± 4.35 µg/mL | >100 µg/mL | 188.56 µg/mL |  |  |  |  |  | 
5 | C[C@@H]1[C@H](O)[C@@H](C)/C=C/C=C/CC/C=C/C=C/C=C/C=C/[C@H](O[C@@H]2O[C@H](C)[C@@H](O)[C@H](N(C)C)[C@@H]2O)C[C@@H]2O[C@](O)(C[C@@H](O)C[C@@H](O)[C@H](O)CC[C@@H](O)C[C@@H](O)CC(=O)O[C@H]1C)C[C@H](O)[C@H]2C(=O)O [Compound N23, N,N-dimethylnystatin A1] | 2 µg/mL | 4 µg/mL | 8 µg/mL | 2.47 µg/mL | 4 µg/mL | 8 µg/mL | 4 µg/mL |  |  |  |  |  | 214.20 µg/mL |  |  |  |  | 
6 | CC1OC(O[C@H]2/C=C/C=C/C=C/C=C/CC/C=C/C=C/[C@H](C)[C@@H](O)[C@@H](C)[C@H](C)OC(=O)C[C@H](O)C[C@H](O)C[C@H](O)CC[C@@H](O)[C@H](O)CC3(O)C[C@H](O)[C@@H](C(=O)O)[C@H](C2)O3)C(O)C(NC(=O)[C@@H](N)Cc2ccccc2)C1O (stereo partly drawn) [Compound N34, N-L-phenylalanylnystatin A1] |  | 8 µg/mL | 8 µg/mL | 6.01 µg/mL | 8 µg/mL | 8 µg/mL | 4 µg/mL |  | >100 µg/mL | >100 µg/mL |  | >300 µg/mL |  | 0.02% |  |  |  | 
7 | CC1OC(O[C@H]2/C=C/C=C/C=C/C=C/CC/C=C/C=C/[C@H](C)[C@@H](O)[C@@H](C)[C@H](C)OC(=O)C[C@H](O)C[C@H](O)C[C@H](O)CC[C@@H](O)[C@H](O)CC3(O)C[C@H](O)[C@@H](C(=O)O)[C@H](C2)O3)C(O)C(NC(=O)[C@H](N)Cc2cccc3ccccc23)C1O (stereo partly shown) [Compound N39] |  | 8 µg/mL | 16 µg/mL | 6.05 µg/mL | 8 µg/mL | 16 µg/mL | 8 µg/mL |  |  |  |  |  |  |  | >100 µg/mL | >100 µg/mL | >100 µg/mL | 
8 | N-[3-(piperidin-1-yl)propionyl]nystatin A1 [Compound N44] |  | 4 µg/mL | 8 µg/mL | 2.95 µg/mL | 4 µg/mL | 8 µg/mL | 4 µg/mL | 209.39 µg/mL | >100 µg/mL | >100 µg/mL | >100 µg/mL |  |  |  |  |  |  | 0.95%
9 | N—[N′-2-(pyrrolidin-1-yl)ethylsuccinimidyl]nystatin A1 [Compound N11] | 4 µg/mL | 8 µg/mL | 8 µg/mL | 3.91 µg/mL | 8 µg/mL | 8 µg/mL | 8 µg/mL |  |  |  |  |  |  |  |  |  |  | 
